Key:
fish = experiment: Fish bioassay (ichthyotoxicity); assay type: in vivo; details: purified toxin
Method: The toxic solvent extracts were subjected to HPLC analytical fractionation. Bioassay guided fractionation was used in all phases of separation to track sample activity and cytotoxic and/or ichthyotoxic extracts were identified. HPLC purification was carried out using a WATERS HPLC system (WATERS 2767 Sample Manager, 1525 Binary Pump, 510 pump, WATERS 2996 PDA and a WATERS ZQ Single Quadrature Mass Detector outfitted with an active flow splitter, switching valve using MASS LYNX software (Waters Corporation, Milford, Mass.). The HPLC/MS method was a water/acetone gradient with 0.2% TFA in both solvents. Extract was loaded onto a Phenomenex (Phenomenex Corporation, Torrance, Calif.) C18 LUNA 3 μm particle size, 250×4.6 mm column. The flow scheme conditions were: 1 mL/min flow rate, 90:10 Water/acetone (hold for 2 minutes). This was followed by a linear gradient over 20 minutes to 100% acetone. The acetone was held for 3 minutes prior to original flow conditions. Column temperature was held at 35° C.
NMR and mass spectral analysis provided unambiguous identification of the novel toxin. […] The euglenoids in culture appear to form the toxin independently of growth phase.

[1] = tested on: Ht-29 (ATCC HTB-38) adenocarcinoma cell line; experiment: Toxicity against adenocarcinoma cell line Ht-29 (MTS or MTT assay); assay type: cell-based; details: summary statement; test of Example 3 / FIG. 3
Method: Specifically, cancer cells were grown to mid-exponential growth phase, aliquots were added to tissue culture plates with carrier (control) and varying euglenophycin toxin (25, 50, 100 mg/L final concentration), with and without 5-fluorouracil and maintained in dimethyl sulfoxide. Growth was monitored by colorimetric change associated with respiration using MTS or MTT assay).

[2] = tested on: GH4C1 rat pituitary cells; experiment: Cytotoxicity against GH4C1 rat pituitary tissue culture cells; assay type: cell-based
[3] = tested on: Gomphonema parvum (diatom); experiment: Algal growth (chlorophyll a) under euglenophycin exposure; assay type: cell-based; details: 0.3, 3 and 30 mg/L; chlorophyll a read daily for four days; FIG. 2
Method: (§1) Clonal isolates of five representative cyanoprokaryote, diatom, and green algae were grown in BG11 media at 28 C on a 14:10 L:D cycle. At mid-exponential phase growth, […] aliquots of each culture was transferred to 96-well plates. Carrier solvent (control) and euglenophycin toxin was added to three of more replicate vials (at 0, 300 ppb, 3 ppm, and 30 ppm) and growth was monitored for […].
(§2) To evaluate the euglenophycin against the growth rate of selected algal taxa. Cultures of five algal species grown in batch culture were exposed to the euglenophycin. The culture include Microcystis aeruginosa (cyanobacteria), Planktothrix (cyanobacteria), Gomphonema parvum (diatom), Scenedesmus dimorphus (green algae), and Oocystis polymorpha (green algae). The cultures were grown using 14:10 hour L:D cycles, in BG11 culture media. When the alga reached exponential phase, the cells were dispensed into Falcon 96-well tissue culture plates and were dosed with euglenophycin at 0, 0.3, 3 and 30 mg/L concentrations. Solvent blanks (acetone) were included in the control test. Readings of chlorophyll a were made on a BMG Labtech FLUOstar Omega spectrometer daily for four days.

[4] = tested on: Planktothrix (cyanobacteria); experiment: as above; assay type: cell-based; details: 0.3, 3 and 30 mg/L; chlorophyll a read daily for four days; FIG. 2
Method: as §1, §2

[5] = tested on: Microcystis aeruginosa (cyanobacteria); experiment: as above; assay type: cell-based; details: 0.3, 3 and 30 mg/L; chlorophyll a read daily for four days; FIG. 2
Method: as §1, §2

[6] = tested on: Oocystis polymorpha (green algae); experiment: as above; assay type: cell-based; details: 0.3, 3 and 30 mg/L; chlorophyll a read daily for four days; FIG. 2
Method: as §1, §2

[7] = tested on: Scenedesmus dimorphus (green algae); experiment: as above; assay type: cell-based; details: 0.3, 3 and 30 mg/L; chlorophyll a read daily for four days; FIG. 2
Method: as §1, §2

Compound: CCC/C=C\CC/C=C/C=C/C1CCCC(CCCCO)N1 (centres unmarked) [euglenophycin]
- fish mortality on re-exposure to the toxin (fish): fish mortalities
- activity against cancerous cell lines [1]: activity
- toxicity (cytotoxic activity) towards GH4C1 rat pituitary cells [2]: toxicity
- effect on culture (chlorophyll a) [3]: negatively affected
- effect on culture (chlorophyll a) [4]: negatively affected
- effect on culture (chlorophyll a) [5]: negatively affected
- effect on culture (chlorophyll a) [6]: negatively affected
- effect on culture (chlorophyll a) [7]: negatively affected
